These results are taken from patent US6673902B2, “Cyclin D binding factor, and uses thereof” (St. Jude Children's Research Hospital, priority 1996, dated 2004).

One series deals with NIH-3T3 fibroblasts. In words: BrdU incorporation in transfected NIH-3T3 fibroblasts. In kind it is cell-based, mouse. The method, then: BrdU is added to NIH-3T3 cells after the experimental treatment and the cells were incubated for twenty-two hours in DMEM plus 10% fetal calf serum (FCS). The cells were then stained for DMP1 expression and/or BrdU incorporation. The nucleic acids encoding the wildtype DMP1 and the deletion and point mutants had been constructed so as to express the corresponding proteins with Flag-tags. To stain for DMP1 expression, mouse monoclonal anti-Flag antibodies (12 μg/ml) [Kodak] were incubated with the cells in TBS-Ca^+ without FCS for one hour at room temperature. After washing the cells, horse anti-mouse biotinylated antibodies at a 1:500 dilution were added to the cells in TBS plus 5% FCS and incubated for 30 minutes at room temperature. After washing the cells, strefptavidin linked to Texas red [Amersham] was then added at a 1:500 dilution for 30 minutes at room temperature. To stain for BrdU incorporation, 1.5N HCl was added to the cells for ten minutes at room temperature to denature the DNA. After washing the cells, sheep anti-BrdU antibodies [Fitzgerald] at a 1:12 dilution were then added for one hour at room temperature. After washing the cells, rabbit FITC-conjugated anti-sheep antibodies [Vector] at 1:100 dilution was then incubated for 30 minutes at room temperature.
NIH-3T3 cells were placed on cover slides and transfected with the expression vectors (pFLEX-DMP1 or the corresponding vector containing the deletion or point mutants of mouse DMP1 plus or minus cyclin D or E) for fourteen hours. The cells were then washed twice and DMEM plus 10% FCS was added and the cells incubated for eight hours. Half of the cells were starved by washing twice with 0.1% FCS, and then incubated for twenty-four hours in 0.1% FCS in DMEM. The remaining cells were not starved but were incubated for twenty-four hours in DMEM plus 10% FCS without washing. BrdU was added to both groups of cells and the cells were incubated for twenty-two hours in DMEM plus 10% FCS.
The cells were then restimulated to enter the cell cycle synchronously with DMEM plus 10% FCS. At the same time, 5′-Bromo-2′ Deoxyuridine (BrdU) was added to the medium. The cells were fixed 22 hours later in methanol acetone (1:1) and stained for BrdU incorporation and DMP1 expression as described in the Materials and Methods.
(In general: Dividing cells build labelled thymidine or BrdU into new DNA.)

In series [1] the test system is DMP1-responsive promoter (pGL2BS2). In words: Transactivation of luciferase reporter plasmid under control of a DMP1-responsive promoter in NIH-3T3 fibroblasts. The class given is cell-based, mouse. The following applies: expression vector 3 μg/10 ml, pGL2BS2 8 μg/10 ml; vector without insert set to 1.0. The source says: Coexpression of a D-type cyclin with DMP1 overrides the ability of DMP1 to transactivate a luciferase gene under the control of an artificial DMP1-responsive promoter (Table 4), as well as the ability of DMP1 to inhibit cell growth.
For orientation: Reporter assays use an easily measured gene product as a stand-in for the process of interest.

Series [2] concerns 281 bp ARF promoter fragment. In words: Transactivation of ARF promoter-luciferase reporter in NIH-3T3 cells. The class given is cell-based, mouse. Particulars: NIH-3T3, 281 bp ARF promoter fragment-luciferase. As to the method: Transactivation assays. NIH-3T3 cells were transfected with 4 μg of pGL2-ARFpro BamHI or its DMP1 binding site mutant, with or without increasing amount of pFLEX-DMP1, pEVRFO-Ets1, pCMV-Ets2, pRcRSV-Elfl, pdEB-Fli1, p(IEB-EWS-Fli1 or pCMV-E2F-1 (89-437), and 4 μg β-actin SEAP control vectors [Inoue and Sherr, Mol. Cell. Biol. 18: 1590-1600 (1998); Inoue et al., J. Biol. Chem. 273:29188-29194 (1998); Davis and Roussel, Gene 171:265-269 (1996); Baily et al., Mol. Cell. Biol. 14:3230-3241 (1994)]. Transfections and normalization of luciferase levels with internal control SEAP levels were performed as described [Inoue and Sherr, Mol. Cell. Biol. 18:1590-1600 (1998)].
Similarly, DMP1 deletion mutants defective in transactivation [Inoue and Sherr, Mol. Cell. […] Mutation of the DMP1 binding site within the ARF promoter [changing CCCGGATGC, (SEQ ID NO:33) to CCCGTCGAC, (SEQ ID NO:42)] also completely abolished transactivation by wild-type DMP1 (FIG. 14C, mutant reporter). Therefore, sequences within the −189 to −181 ARF promoter segment were the only ones responsible for DMP1-mediated transactivation. Although Ets1 could bind to a 23 base pair oligonucleotide containing the DMP1 consensus site (FIG. 14B), several Ets proteins were unable to induce significant reporter gene expression from the more complex 281 base pair ARF promoter (FIG. 14C). […]

For the next series, the system named is 32P-BS2 Probe. In words: EMSA with 32P-BS2 probe on transfection lysates of NIH-3T3 fibroblasts. The class given is binding. Particulars: 32P labeled BS2 probe. As to the method: (§1) Double-stranded oligonucleotides containing potential DMP1 binding sites (BS1 and BS2) and mutated versions (M1-M4) (FIG. 5B) are end-labeled with ^32P using the Klenow fragment of DNA polymerase and α-^32P-dATP (6000 Ci/mmol; Dupont NEN) (8). Nuclear extracts from mouse NIH-3T3 or CTLL cells are prepared with buffer containing 0.4 M NaCl (2). Mammalian cell extracts (15 μg protein) or Sf9 lysates (corresponding to 5×10^2 infected cells) containing ˜4 ng recombinant DMP1 are mixed with 3 ng of ^32P-labeled probe (1×10^5 cpm) in 15 ul Binding buffer containing 2.5 μg of poly(dI-dC) and 2.5 μg BSA and incubated at 4° C. for 30 minutes. For competition experiments, the indicated amounts of unlabeled oligonucleotides are added to the reactions before addition of the labeled probe. In some experiments, a bacterially produced GST-Ets2 fusion protein containing the complete Ets2 DNA-binding domain (10) is used in place of Sf9 extracts containing recombinant DMP1. Protein-DNA complexes are separated on nondenaturing 4% polyacrylamide gels as described (8). Where indicated, antiserum to DMP1 together with 2.5 μg salmon testis DNA (Sigma; used to reduce nonspecific DNA binding activity caused by serum addition) is preincubated with extracts for 30 minutes at 4° C. prior to initiation of binding reactions. Immune complexes are either removed by adsorption to protein A-Sepharose beads (immunodepletion experiments) or are allowed to remain (“supershift” experiments).
A series of deletion mutants and a point mutant of DMP1, K319E, (in which the lysine at position 319 of SEQ ID NO:1 is replaced by a glutamic acid) were prepared and used to determine the DNA-binding domain of DMP1 by electrophoretic mobility shift assay (EMSA) using a ^32P labeled BS2 probe. The DNA-binding domain of DMP1 was mapped to a central region containing the three MYB repeats plus adjacent flanking sequences: a BstEII to NcoI fragment encoding amino acids 87-458 of SEQ ID NO:1 (Table 1). This region alone was necessary and sufficient for DNA binding.
On the technique in general: A gel shift assay detects complexes by their altered migration in electrophoresis.

A further series has as its target T1, GST-Ets2 fusion protein (Homo sapiens, UniProt P15036).
T1 construct: made in house; host or cells: bacteria
T1 sequence (P15036 363-443 limits assumed): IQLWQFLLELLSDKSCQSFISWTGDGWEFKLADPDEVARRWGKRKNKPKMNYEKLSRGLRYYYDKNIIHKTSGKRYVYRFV
In words: EMSA competition with bacterial GST-Ets2 fusion protein. In kind it is binding. Particulars: excess unlabeled oligonucleotide. The method, then:
as §1
(§2) Using electrophoretic mobility shift assays (EMSA) performed after mixing a titrated excess (3 ng) of ^32P-end labeled BS1 probe with Sf9 lysates producing DMP1 (˜4 ng recombinant protein per reaction), a BS1-containing protein complex is detected that was competed with an excess of unlabeled BS1 oligonucleotide but not with mutant oligonucleotides M1 and M2 (FIG. 6A). […] More subtle mutations within this region may be tolerated, because high concentrations of M4 competed for BS1 binding to both Ets2 and DMP1 in subsequent studies (FIG. 5B and see below). DMP1 also binds a BS2 probe, and the binding is competed by excess BS2 or BS1 (FIG. 6B). In agreement with the site selection frequencies (FIG. 5A), binding of ^32P-BS1 under equivalent conditions was competed more efficiently by excess unlabeled BS1 than by BS2 (FIG. 6B). […] In agreement, Ets2 binding to BS1 could be competed with excess unlabeled BS1 and M3, but not by BS2 (FIG. 6C). Therefore, although both DMP1 and Ets2 can each bind to BS1 sequences, their exclusive interactions with BS2 and M3, respectively, help to distinguish DMP1 and Ets binding activities (summarized in FIG. 5B).

Series [3] has as its target T2, recombinant DMP1 (Mus musculus, UniProt Q8CE22).
T2 construct: made in house; host or cells: Sf9 insect cells, pAcYM1 baculovirus vector; used as crude lysate (~4 ng DMP1 per reaction)
T2 sequence (Q8CE22 1-761): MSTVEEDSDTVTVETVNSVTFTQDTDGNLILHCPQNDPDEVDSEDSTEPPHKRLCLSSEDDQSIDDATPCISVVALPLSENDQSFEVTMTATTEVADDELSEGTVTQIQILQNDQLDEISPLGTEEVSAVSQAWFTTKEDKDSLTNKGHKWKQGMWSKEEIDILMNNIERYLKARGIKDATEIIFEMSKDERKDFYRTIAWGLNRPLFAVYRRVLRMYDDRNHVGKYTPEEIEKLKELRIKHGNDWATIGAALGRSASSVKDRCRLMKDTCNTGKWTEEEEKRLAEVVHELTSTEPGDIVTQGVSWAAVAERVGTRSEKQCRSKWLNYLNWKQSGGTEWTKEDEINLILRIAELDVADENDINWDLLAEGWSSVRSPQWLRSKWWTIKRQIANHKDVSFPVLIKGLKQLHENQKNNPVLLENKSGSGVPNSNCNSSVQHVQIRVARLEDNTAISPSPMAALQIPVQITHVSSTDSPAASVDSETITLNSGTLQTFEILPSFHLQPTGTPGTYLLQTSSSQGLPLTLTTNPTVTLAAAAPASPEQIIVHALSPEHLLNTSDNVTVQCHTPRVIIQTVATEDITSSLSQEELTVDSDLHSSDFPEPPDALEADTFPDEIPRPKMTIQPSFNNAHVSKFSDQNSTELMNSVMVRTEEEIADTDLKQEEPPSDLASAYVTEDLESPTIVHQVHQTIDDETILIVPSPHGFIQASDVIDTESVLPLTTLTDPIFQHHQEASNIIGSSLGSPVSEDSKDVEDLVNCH
In words: EMSA competition with Sf9 lysates producing recombinant DMP1. In kind it is binding. Particulars: excess unlabeled oligonucleotide. The method, then:
as §1, §2

In series [4] the target is T2, recombinant DMP1. In words: EMSA competition, recombinant DMP1 and 281 base pair ARF promoter fragment. The class given is binding. Particulars: 200-fold excess of unlabelled oligonucleotide. As to the method:
Electrophoretic mobility shift assay (EMSA). Recombinant DMP1 protein was prepared in Sf9 cells [Hirai and Sherr, Mol. Cell. Biol. 16:6457-6467 (1996)]. Purified bacterial proteins representing the Ets1 DNA binding domain or full-length Ets1 [Inoue, et al., J. Biol. Chem. 273:29188-29194 (1998)] were used. EMSAs were performed [Inoue and Sherr, Mol. Cell. Biol. 18:1590-1600 (1998)] using either a 281-bp genomic fragment (−225 to +56) or double-stranded oligonucleotides containing the DMP1/Ets site obtained by annealing oligonucleotide 5′-[…]-3′ (sense strand SEQ ID NO:41); DMP1/Ets consensus sequence underlined) with a complementary antisense strand. For competition experiments, a 200-fold excess of unlabelled oligonucleotides was added to reaction mixtures before the probe. To verify the identity of the proteins in shifted complexes, reaction mixtures were incubated with control nonimmune rabbit serum (NRS), serum AF [Hirai and Sherr, Mol. Cell. Biol. 16:6457-6467 (1996)] and M-10 (both to DMP1 carboxylterminal epitopes), S-19 (DMP1 N-terminus), or C-20 (Ets1 C-terminus) before electrophoresis. M-10, S-19, and C-20 were from Santa Cruz Biotechnology.
The nucleotide sequence of the proximal promoter region of the murine ARF gene relative to the transcription initiation site as defined by S1 mapping analysis was determined (FIG. 13). […]

Consider “M11: DMP1 point mutant, lysine at position 319 of SEQ ID NO:1 replaced by glutamic acid”, for which, in the series with NIH-3T3 fibroblasts (Table 2, expression vector 3 μg/10 ml), the “% Cells BrdU Positive” value is given as 48%. Besides, the “% Cells BrdU Positive in 10% FCS” value with NIH-3T3 fibroblasts (nonstarved cells, additive None, labeled 22 hours) is given as 54%. Further, the “% Cells BrdU Positive in 0.1% FCS” value with NIH-3T3 fibroblasts (starved cells, additive None, labeled 22 hours) came to 47%. In series [1], the “Luciferase Activity” value turned out to be 1.1. In addition, the “ARF promoter reporter gene expression” value in series [2] is listed as “had no activity”. Besides, the “affinity for the DNA probe relative to wildtype” value in the series on 32P-BS2 Probe is given as “about 2%”.
As for “oligonucleotide BS2: probe/competitor BS2, SEQ ID NO:11, DMP1 binding site CCCGTATGT with GTA core (DNA AATTGACCCGTATGTAGGTACGC; chemistry not given here)”, the “competition for BS1 binding to Ets2” value in the series with GST-Ets2 fusion protein is “not”. Besides, in the series with recombinant DMP1 [3], the “competition for 32P-BS1 probe binding to DMP1” value is recorded as “competed” and the “competition for BS2 probe binding to DMP1” value is “competed”. Further, in the series with recombinant DMP1 [4], the “competition for DMP1 binding to the 281 base pair ARF promoter fragment” value is reported as “completely inhibited”.
